Experimental findings from patent US8222419B2, “Oxepin derivative” (Nippon Zoki Pharmaceutical Co., Ltd., priority 2006, dated 2012) are described below.

Data set [1] concerns histamine-induced vascular hyperpermeability. Kind of data set: Rat histamine-induced vascular hyperpermeability reaction (in vivo antihistamine action). As to conditions: SD male rat, oral administration 1 hour before intracutaneous histamine (20 μg/location), Evans Blue leakage after 30 minutes. On the procedure:
Rat Histamine-Induced Vascular Hyperpermeability Reaction (in Vivo Antihistamine Action)
An SD male rat (SPF) of 180 g in weight was previously fed for one week or more by allowing the rat to take a solid feed and tap water ad libitum, under the environment setting of a temperature of 22° C., humidity of 55% and an artificial illumination of 12 hours a day (light phase 8 am to 8 pm), and the rat was fasted overnight to be used for the experiment. Histamine-dihydrochloride (hereinafter referred to as histamine) and Evans Blue were used by dissolving each in physiological saline upon use. A substance to be tested was dissolved in water for injection or suspended in 0.5% carboxymethyl cellulose sodium, and the rat was orally administered with the solution or suspension (dose volume: 5 mL/kg body weight). After 1 hour from the administration, the physiological saline and the histamine solution were each intracutaneously injected to two locations (20 μg/0.05 ml/location) each on a back part of the rat of which hair was sheared with an electric clipper while anesthetizing with an ether. A 0.5% Evans Blue-containing physiological saline was injected intravenously to the tail (1 mL/200 g body weight) of the rat immediately before the intracutaneous injection of the histamine.
After 30 minutes, the animal was decapitated, and allowed to bleed lethally, and the skin was removed to measure an amount of leaked pigment in the blue-stained portion. The measurement of the amount of leaked pigment was carried out as follows. Skins of the pigment leaking site were cut out at two locations, 1 mL of a 2 mol/L aqueous potassium hydroxide solution was added thereto in a test tube, and the test tube was allowed to stand overnight at 37° C. to dissolve. Thereafter, 6 mL of a 1:3 mixed solution of 0.67 mol/L phosphoric acid and acetone was added to the solution, and the mixture was vigorously shaken for 10 minutes. Thereafter, the mixture was filtered, and the absorbance of the filtrate at 620 nm was measured. The absorbance obtained from the two locations of the sites injected with physiological saline, obtained as blank value, was used for a compensation. The amount of leaked pigment was calculated from the calibration curve of Evans Blue at 620 nm.

For data set [2], the target named is T1, H1 receptor (Mus musculus, UniProt P70174).
T1 construct: The excised brain tissue was homogenized with Polytron; from tissue; host or cells: entire brain except cerebellum and medulla oblongata, homogenate
Kind of data set: Murine intracranial H1 receptor content (ex vivo), 3H-pyrilamine binding in brain homogenate after oral dosing. As to conditions: for ID50 (mg/kg)/ED50 (mg/kg): ID50 of intracranial receptor binding test (Table 7) divided by ED50 of histamine-induced vascular hyperpermeability test (Table 6); for ED50: mouse.

[3] abbreviates: oral administration, brain excised after 1 hour, 3H-pyrilamine 2 nmol/L binding to brain homogenate, read-out: ID50 (the source's name).

Read-outs that look alike come from different tables or passages of the source.

T1 sequence (P70174 whole entry): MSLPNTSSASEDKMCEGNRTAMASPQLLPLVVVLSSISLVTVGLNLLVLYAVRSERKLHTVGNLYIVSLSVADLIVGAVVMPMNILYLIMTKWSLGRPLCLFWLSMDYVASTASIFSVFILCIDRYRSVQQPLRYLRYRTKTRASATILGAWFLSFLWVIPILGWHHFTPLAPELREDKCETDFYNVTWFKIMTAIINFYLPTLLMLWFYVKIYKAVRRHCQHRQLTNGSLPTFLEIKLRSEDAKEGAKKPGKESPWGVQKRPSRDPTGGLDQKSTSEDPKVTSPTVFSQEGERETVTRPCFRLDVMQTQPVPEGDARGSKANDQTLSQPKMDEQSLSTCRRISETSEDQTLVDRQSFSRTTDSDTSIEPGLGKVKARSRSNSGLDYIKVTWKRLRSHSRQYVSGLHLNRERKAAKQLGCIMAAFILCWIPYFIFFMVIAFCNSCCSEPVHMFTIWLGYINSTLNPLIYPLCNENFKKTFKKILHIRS

In the case of `CN1CCC(=C2c3ccccc3COc3ccc(CC(=O)O)cc32)CC1` [Compound 24, [11-(1-Methylpiperidin-4-ylidene)-6,11-dihydrodibenz[b,e]oxepin-2-yl]acetic acid], the melting point is 226 °C (dec.). Also, in data set [1], the ED50 worked out at 0.03 mg/kg. Besides, in data set [2], the “ID50 (mg/kg)/ED50 (mg/kg)” value came to 53.3. The ED50 in data set [2] (setting [3]) was determined as 1.6 mg/kg.

On to `CN1CCC(=C2c3ccccc3COc3ccc(C=CC(=O)O)cc32)CC1` [Compound 7, 3-[11-(1-Methylpiperidin-4-ylidene)-6,11-dihydrodibenz[b,e]oxepin-2-yl]acrylic acid], for which the melting point was 145 °C (dec.). Besides, in data set [1], the ED50 is 0.3 mg/kg. In addition, the “ID50 (mg/kg)/ED50 (mg/kg)” value in data set [2] was found to be 4.4. Further, in data set [2] (setting [3]), the ED50 came to 1.32 mg/kg.

For `CN1CCC(=C2c3ccccc3COc3ccc(NC(N)=O)cc32)CC1` [Compound 17, [11-(1-Methylpiperidin-4-ylidene)-6,11-dihydrodibenz[b,e]oxepin-2-yl]urea], the melting point was 183 °C (dec.). Further, the ED50 in data set [1] worked out at 0.62 mg/kg. For the same compound, the “ID50 (mg/kg)/ED50 (mg/kg)” value in data set [2] is given as 60.6. For the same compound, the ED50 in data set [2] (setting [3]) came to 37.6 mg/kg.

The compound `CN1CCC(=C2c3ccccc3CC(=O)c3sccc32)CC1` [Ketotifen, reference compound] returned an ED50 in data set [1] of 0.54 mg/kg.

Turning to `CN1CCC(=C2c3ccccc3COc3ccc(C(=O)O)cc32)CC1` [Compound 1, 11-(1-Methylpiperidin-4-ylidene)-6,11-dihydrodibenz[b,e]oxepin-2-carboxylic acid], the ED50 in data set [1] worked out at 0.046 mg/kg; in data set [2] (setting [3]), 1.25 mg/kg. Moreover, in data set [2], the “ID50 (mg/kg)/ED50 (mg/kg)” value was 27.2.

As to `CN1CCC(=C2c3ccccc3COc3ccc(CCC(=O)O)cc32)CC1.Cl` [Compound 43, 3-[11-(1-Methylpiperidin-4-ylidene)-6,11-dihydrodibenz[b,e]oxepin-2-yl]propionate hydrochloride], the ED50 was 0.1 mg/kg in data set [1] and less than 2 mg/kg in data set [2] (po, 1 h, read-out: ID50). Moreover, in data set [2], the “ID50 (mg/kg)/ED50 (mg/kg)” value is more than 20.0.

By melting point is commonly meant the temperature of the solid-liquid transition.
